In US6143769A, “Phenylacetic acid benzylamides” (Karl Thomae GmbH, priority 1983, dated 2000):

Legend:
clinical = details: human, plasma, 1 mg
Description: More specifically, the studies which follow were carried out on healthy male volunteers in whom the levels of glucose and active substance in the course of time were determined:
In the interests of more precise clarification, study 5 was carried out (randomised, open, crossover). […] 2 hours after administration a standard breakfast (B) was eaten, 5 hours after administration a standard lunch (L) was eaten and 10 hours after administration a standard dinner (D) was eaten. Blood samples were taken at different times. The glucose concentrations were measured in the plasma as in study 1. […] The plasma concentrations of AG-EE 624 ZW were calculated as the difference between the two concentrations found:

glucose [1] = experiment: Study 2: whole blood glucose, 2 mg AG-EE 388 ZW capsule or tablet, crossover; assay type: in vivo, human
Description: Blood samples were taken at various times.

glucose [2] = experiment: Study 1: whole blood glucose, 2 mg AG-EE 388 ZW capsule, 12 healthy male volunteers; assay type: in vivo, human; details: 2 mg capsule

Structure (SMILES): CCOc1cc(CC(=O)NC(CC(C)C)c2ccccc2N2CCCCC2)ccc1C(=O)O (racemic) [AG-EE 388 ZW, 2-ethoxy-4-[N-[1-(2-piperidino-phenyl)-3-methyl-1-butyl]aminocarbonylmethyl]-benzoic acid]
- concentration at 0.08 h (clinical; iv): 33.3 ng/mL
- concentration at 0.17 h (clinical; iv): 74.8 ng/mL
- concentration at 0.25 h (clinical; iv): 104 ng/mL
- concentration at 0.28 h (clinical; iv): 102 ng/mL
- concentration at 0.33 h (clinical; iv): 85.6 ng/mL
- concentration at 0.42 h (clinical; iv): 69.6 ng/mL
- concentration at 0.5 h (clinical; iv): 60.1 ng/mL
- concentration at 0.75 h (clinical; iv): 44.2 ng/mL
- concentration at 1 h (clinical; iv): 35.8 ng/mL
- concentration at 1.25 h (clinical; iv): 31.4 ng/mL
- concentration at 1.5 h (clinical; iv): 27 ng/mL
- concentration at 2 h (clinical; iv): 21 ng/mL
- concentration at 2.5 h (clinical; iv): 17.6 ng/mL
- concentration at 3 h (clinical; iv): 13.5 ng/mL
- concentration at 4 h (clinical; iv): 9.4 ng/mL
- concentration at 5 h (clinical; iv): 7 ng/mL
- concentration at 6 h (clinical; iv): 4 ng/mL
- concentration at 9 h (clinical; iv): 1.5 ng/mL
- concentration at 0.5 h (clinical; po): 35.1 ng/mL
- concentration at 0.75 h (clinical; po): 40.2 ng/mL
- concentration at 1 h (clinical; po): 39.1 ng/mL
- concentration at 1.5 h (clinical; po): 30.8 ng/mL
- concentration at 2 h (clinical; po): 24 ng/mL
- concentration at 3 h (clinical; po): 14.8 ng/mL
- concentration at 4 h (clinical; po): 8.7 ng/mL
- concentration at 5 h (clinical; po): 5.6 ng/mL
- concentration at 6 h (clinical; po): 3.5 ng/mL
- concentration at 9 h (clinical; po): 1.8 ng/mL
- Glucose (mean) (glucose [1]; 2 mg capsule, 0 h): 5.0 mmol/L
- Glucose (mean) (glucose [1]; 2 mg capsule, 0.20 h): 5.0 mmol/L
- Glucose (mean) (glucose [1]; 2 mg capsule, 0.33 h): 4.9 mmol/L
- Glucose (mean) (glucose [1]; 2 mg capsule, 0.50 h): 4.8 mmol/L
- Glucose (mean) (glucose [1]; 2 mg capsule, 0.75 h): 4.6 mmol/L
- Glucose (mean) (glucose [1]; 2 mg capsule, 1.00 h): 4.4 mmol/L
- Glucose (mean) (glucose [1]; 2 mg capsule, 1.50 h): 3.9 mmol/L
- Glucose (mean) (glucose [1]; 2 mg capsule, 2.00 h (breakfast)): 3.7 mmol/L
- Glucose (mean) (glucose [1]; 2 mg capsule, 3.00 h): 4.4 mmol/L
- Glucose (mean) (glucose [1]; 2 mg capsule, 4.00 h): 4.0 mmol/L
- Glucose (mean) (glucose [1]; 2 mg capsule, 5.00 h (lunch)): 4.2 mmol/L
- Glucose (mean) (glucose [1]; 2 mg capsule, 6.00 h): 4.8 mmol/L
- Glucose (mean) (glucose [1]; 2 mg capsule, 9.00 h): 5.0 mmol/L
- Glucose (mean) (glucose [1]; 2 mg capsule, 24.00 h): 4.9 mmol/L
- Time at which glucose levels return to original level (glucose [1]; 2 mg p.o.): 6 h
- Glucose (mean) (glucose [1]; 2 mg tablet, 0 h): 4.9 mmol/L
- Glucose (mean) (glucose [1]; 2 mg tablet, 0.20 h): 5.0 mmol/L
- Glucose (mean) (glucose [1]; 2 mg tablet, 0.33 h): 4.9 mmol/L
- Glucose (mean) (glucose [1]; 2 mg tablet, 0.50 h): 4.6 mmol/L
- Glucose (mean) (glucose [1]; 2 mg tablet, 0.75 h): 4.4 mmol/L
- Glucose (mean) (glucose [1]; 2 mg tablet, 1.00 h): 4.1 mmol/L
- Glucose (mean) (glucose [1]; 2 mg tablet, 1.50 h): 3.8 mmol/L
- Glucose (mean) (glucose [1]; 2 mg tablet, 2.00 h (breakfast)): 3.8 mmol/L
- Glucose (mean) (glucose [1]; 2 mg tablet, 3.00 h): 4.7 mmol/L
- Glucose (mean) (glucose [1]; 2 mg tablet, 4.00 h): 4.2 mmol/L
- Glucose (mean) (glucose [1]; 2 mg tablet, 5.00 h (lunch)): 4.2 mmol/L
- Glucose (mean) (glucose [1]; 2 mg tablet, 6.00 h): 5.2 mmol/L
- Glucose (mean) (glucose [1]; 2 mg tablet, 9.00 h): 5.0 mmol/L
- Glucose (mean) (glucose [1]; 2 mg tablet, 24.00 h): 4.8 mmol/L
- Duration of activity (glucose [2]): about 5 hours
- Glucose, deviation from placebo (glucose [2]; 0 h): n.s.
- Glucose, deviation from placebo (glucose [2]; 0.50 h): n.s.
- Glucose, deviation from placebo (glucose [2]; 0.75 h): -9%
- Glucose, deviation from placebo (glucose [2]; 1.00 h): -17%
- Glucose, deviation from placebo (glucose [2]; 1.50 h): -27%
- Glucose, deviation from placebo (glucose [2]; 2.00 h): -24%
- Glucose, deviation from placebo (glucose [2]; 2.50 h): -19%
- Glucose, deviation from placebo (glucose [2]; 3.00 h): n.s.
- Glucose, deviation from placebo (glucose [2]; 4.00 h): -24%
- Glucose, deviation from placebo (glucose [2]; 5.00 h): -9%
- Glucose, deviation from placebo (glucose [2]; 5.50 h (lunch)): n.s.
- Glucose, deviation from placebo (glucose [2]; 6.00 h): n.s.
- Glucose, deviation from placebo (glucose [2]; 7.00 h (snack)): n.s.
- Glucose, deviation from placebo (glucose [2]; 8.00 h): -5%
- Glucose, deviation from placebo (glucose [2]; 9.00 h): n.s.
- Glucose, deviation from placebo (glucose [2]; 10.00 h (dinner)): n.s.
